Legend:
[1] = tested on: M. smegmatis strain 49::H37Rv A18
Rv1170 [2] = biological target: T1, Rv1170 (Mycobacterium tuberculosis, UniProt P9WJN3); assay type: biochemical, M. tuberculosis
Rv1170 [3] = biological target: T1, Rv1170; assay type: biochemical, M. tuberculosis; remark: listed apart in the source

T1 sequence (P9WJN3 whole entry, looked up): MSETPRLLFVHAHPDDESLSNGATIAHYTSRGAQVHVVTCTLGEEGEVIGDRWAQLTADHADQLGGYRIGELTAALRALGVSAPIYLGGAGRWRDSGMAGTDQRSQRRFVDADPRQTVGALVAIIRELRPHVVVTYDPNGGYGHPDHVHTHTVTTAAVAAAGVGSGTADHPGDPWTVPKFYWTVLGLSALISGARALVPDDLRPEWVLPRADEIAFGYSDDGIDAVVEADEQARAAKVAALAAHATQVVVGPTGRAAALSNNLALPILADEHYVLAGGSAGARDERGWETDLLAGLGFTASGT

Row | SMILES | Reduction of the peroxide sensitivity of mutant 49 [1] | Activity, deacetylase reaction (analysis for amine / deacetylase product) (Rv1170 [2]) | Deacetylated by the invention deacetylase (Rv1170 [2]) | Activity, amidase cleavage (analysis for AcCySmB or AcCys) (Rv1170 [3]) | Decrease in reactivity versus GlcNAc-Ins (removal of inositol residue) (Rv1170 [2])
1 | OO [H2O2, hydrogen peroxide] | by a factor of two |  |  |  | 
2 | CC(=O)N[C@@H](CS)C(=O)N[C@H]1[C@@H](OC2[C@H](O)[C@H](O)C(O)[C@H](O)[C@H]2O)O[C@H](CO)[C@@H](O)[C@@H]1O (stereo partly drawn) [MSH, 1-D-myo-inosityl-2-(N-acetylcysteinyl)amido-2-deoxy-α-D-glucopyranoside] |  | <10^−4 nmol min^−1 mg of protein^−1 | neither MSH nor MSmB is deacetylated | 0.002 ± 0.001 nmol min^−1 mg of protein^−1 | 
3 | CC(=O)N[C@H]1C(O)O[C@H](CO)[C@@H](O)[C@@H]1O (stereo partly drawn) [GlcNAc, N-acetylglucosamine] |  | 0.087 ± 0.005 nmol min^−1 mg of protein^−1 |  |  | more than 300 fold
